Laboratory results reported in patent publication US20130217664A1, “NOVEL COMPOUNDS USEFUL FOR THE TREATMENT OF DEGENERATIVE AND INFLAMMATORY DISEASES” (priority 2012, published 2013).

Tests used:
human JAK2 = molecular target: T1, human JAK2 (Homo sapiens, UniProt O60674); assay: JAK2 inhibition assay (polyGT substrate / Ulight-JAK1 peptide); assay type: biochemical; details: recombinant human JAK2 catalytic domain; polyGT or Ulight-JAK1 peptide assay
T1 construct: catalytic domain (amino acids 808-1132; catalog number PV4210); GST; purchased Invitrogen PV4210
In short: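 Two JAK2 formats: a ^33P-ATP polyGT assay (1 μM cold ATP, 90 min, 30° C., cpm read-out) and a Ulight-JAK1 peptide assay read by Europium-anti-phosphotyrosine fluorescence after 60 min at room temperature.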

CTLL-2 cell line = assay: CTLL2 viability assay; assay type: cell-based; details: Mus musculus, IL-2 dependent CTLL2 viability, 24 h, ATP-lite
From the text: The protocol describes the methods to analyse the activity of compounds on their ability to sustain the IL2-dependent viability of CTLL2.
Final DMSO concentration was 0.1%.

BA/F3 cell line = assay: BA/F3 viability assay; details: Mus musculus, BaF3, 48 h, read-out: BA/F3 IC50
human TYK2 = molecular target: T2, human TYK2 (Homo sapiens, UniProt P29597); assay: TYK2 inhibition assay; assay type: biochemical; details: recombinant human TYK2 catalytic domain, polyGT substrate
T2 construct: catalytic domain (amino acids 871-1187; catalog number 08-147); purchased Carna Biosciences 08-147
T2 sequence (P29597 871-1187): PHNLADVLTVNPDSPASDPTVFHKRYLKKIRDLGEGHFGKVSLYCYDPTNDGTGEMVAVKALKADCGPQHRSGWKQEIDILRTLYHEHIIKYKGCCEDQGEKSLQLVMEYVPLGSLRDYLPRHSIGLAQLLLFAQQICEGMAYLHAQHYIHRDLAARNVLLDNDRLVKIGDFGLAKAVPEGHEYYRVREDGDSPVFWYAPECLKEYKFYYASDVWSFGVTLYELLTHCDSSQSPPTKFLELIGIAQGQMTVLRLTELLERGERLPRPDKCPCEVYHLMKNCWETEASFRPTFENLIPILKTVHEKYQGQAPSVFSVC
In short: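 Radiometric kinase reaction run 90 min at 30 °C, stopped with phosphoric acid, washed and scintillation-counted.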

T1 sequence (O60674 808-1132): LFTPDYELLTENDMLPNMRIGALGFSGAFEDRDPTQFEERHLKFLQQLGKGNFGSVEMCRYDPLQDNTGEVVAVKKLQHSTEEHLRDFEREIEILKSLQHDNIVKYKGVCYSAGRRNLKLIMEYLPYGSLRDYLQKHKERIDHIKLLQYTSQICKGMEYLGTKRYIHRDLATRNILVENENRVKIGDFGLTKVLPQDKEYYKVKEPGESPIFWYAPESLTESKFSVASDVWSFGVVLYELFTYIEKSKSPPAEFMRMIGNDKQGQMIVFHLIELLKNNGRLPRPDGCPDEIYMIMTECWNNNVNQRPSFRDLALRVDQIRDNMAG

Row | IC50 (human JAK2) [nM] | IC50 (BA/F3 cell line) [nM] | IC50 (human TYK2) [nM] | Compound | IC50 (CTLL-2 cell line) [nM]
1 | 101 to 500 | > 5000 | 0.01 to 100 | CCc1cc(CO)ccc1N(C)c1cc2c(cn1)ncn2C [Compound 81, (3-Ethyl-4-(methyl(1-methyl-1H-imidazo[4,5-c]pyridin-6-yl)amino)phenyl)MeOH] | > 1000
2 | 0.01 to 100 | > 5000 | 0.01 to 100 | CCc1cc(-c2cnn(C)c2)ccc1N(C)c1cc2c(cn1)ncn2C [Compound 93, N-(2-Ethyl-4-(1-methyl-1H-pyrazol-4-yl)phenyl)-N,1-dimethyl-1H-imidazo[4,5-d]pyridin-6-amine] | > 1000
3 | 101 to 500 | > 5000 | 0.01 to 100 | CCc1cc(-c2cncnc2)ccc1N(C)c1cc2c(cn1)ncn2C [Compound 95, N-(2-ethyl-4-(pyrimidin-5-yl)phenyl)-N,1-dimethyl-1H-imidazo[4,5-c]pyridin-6-amine] | > 1000
4 | 0.01 to 100 | > 5000 | 0.01 to 100 | CCc1cc(C(C)O)ccc1N(C)c1cc2c(cn1)ncn2C (stereo not shown) [Compound 101, 1-(3-Ethyl-4-(methyl(1-methyl-1H-imidazo[4,5-c]pyridin-6-yl)amino)phenyl)ethanol] | > 1000
5 | 0.01 to 100 | – | 0.01 to 100 | CCc1cc(O)ccc1N(C)c1cc2c(cn1)ncn2C [Compound 107, 3-ethyl-4-(methyl(1-methyl-1H-imidazo[4,5-c]pyridin-6-yl)amino)phenol] | –
6 | 101 to 500 | – | 0.01 to 100 | CCc1cc(OC2CCN(S(C)(=O)=O)C2)ccc1N(C)c1cc2c(cn1)ncn2C (stereo not shown) [Compound 110, N-(2-Ethyl-4-((1-(methylsulfonyl)pyrrolidin-3-yl)oxy)phenyl)-N,1-dimethyl-1H-imidazo[4,5-c]pyridin-6-amine] | –
7 | 101 to 500 | – | 101 to 500 | CCc1cc(Cn2ccnc2)ccc1N(C)c1cc2c(cn1)ncn2C [Compound 111, N-(4-((1H-imidazol-1-yl)methyl)-2-ethylphenyl)-N,1-dimethyl-1H-imidazo[4,5-c]pyridin-6-amine] | –
8 | 101 to 500 | – | 0.01 to 100 | CCc1cc(-c2ccc(C#N)nc2)ccc1N(C)c1cc2c(cn1)ncn2C [Compound 114, 5-(3-ethyl-4-(methyl(1-methyl-1H-imidazo[4,5-c]pyridin-6-yl)amino)phenyl)picolino-nitrile] | –
9 | 101 to 500 | > 5000 | 0.01 to 100 | CCc1cc(-c2cnc(NC(C)=O)nc2)ccc1N(C)c1cc2c(cn1)ncn2C [Compound 115, N-(5-(3-Ethyl-4-(methyl(1-methyl-1H-imidazo[4,5-c]pyridin-6-yl)amino)phenyl)pyrimidin-2-yl)acetamide] | > 1000
10 | > 1000 | – | > 1000 | CCc1cc(C(=O)NCCN(C)C)ccc1N(C)c1cc2c(cn1)ncn2C [Compound 119, N-(2-(dimethylamino)ethyl)-3-ethyl-4-(methyl(1-methyl-1H-imidazo[4,5-c]pyridin-6-yl)amino)benzamide] | –
11 | 101 to 500 | – | 101 to 500 | CCc1cc(C(=O)NCC#N)ccc1N(C)c1cc2c(cn1)ncn2C [Compound 120, N-(cyanomethyl)-3-ethyl-4-(methyl(1-methyl-1H-imidazo[4,5-c]pyridin-6-yl)amino)benzamide] | –
12 | > 1000 | – | > 1000 | CCc1ccc(C(=O)NC(C)(C)C)cc1N(C)c1cc2c(cn1)ncn2C [Compound 123, N-tert-butyl-4-ethyl-3-(methyl(1-methyl-1H-imidazo[4,5-c]pyridin-6-yl)amino)benzamide] | –
13 | 101 to 500 | – | 0.01 to 100 | CCc1cc(-c2ccsc2)ccc1N(C)c1cc2c(cn1)ncn2C [Compound 127, N-(2-ethyl-4-(thiophen-3-yl)phenyl)-N,1-dimethyl-1H-imidazo[4,5-c]pyridin-6-amine] | –
14 | 101 to 500 | – | 101 to 500 | CCc1cc(-c2ccc(CNC(=O)OC(C)(C)C)s2)ncc1N(C)c1cc2c(cn1)ncn2C [Compound 302] | –
15 | > 1000 | – | > 1000 | CCc1cc(-c2ccc(CN)s2)ncc1N(C)c1cc2c(cn1)ncn2C [Compound 303, [6-(5-Aminomethyl-thiophen-2-yl)-4-ethyl-pyridin-3-yl]-methyl-(1-methyl-1H-imidazo[4,5-c]pyridin-6-yl)-amine] | –
16 | 0.01 to 100 | – | 0.01 to 100 | CCc1cc(-c2ccc(Cl)s2)ncc1N(C)c1cc2c(cn1)ncn2C [Compound 304, [6-(5-Chloro-thiophen-2-yl)-4-ethyl-pyridin-3-yl]-methyl-(1-methyl-1H-imidazo[4,5-c]pyridin-6-yl)-amine] | –
17 | 0.01 to 100 | – | 0.01 to 100 | CCc1cc(-c2ccc(C)s2)ncc1N(C)c1cc2c(cn1)ncn2C [Compound 311, [4-Ethyl-6-(5-methyl-thiophen-2-yl)-pyridin-3-yl]-methyl-(1-methyl-1H-imidazo[4,5-c]pyridin-6-yl)-amine] | –
18 | > 1000 | – | > 1000 | COc1cc(-c2c(C)nn(C)c2C)ncc1N(C)c1cc2c(cn1)ncn2C [Compound 312] | –
19 | 101 to 500 | – | 101 to 500 | COc1cc(N2CCOCC2)ncc1N(C)c1cc2c(cn1)ncn2C [Compound 313, (4-Methoxy-6-morpholin-4-yl-pyridin-3-yl)-methyl-(1-methyl-1H-imidazo[4,5-c]pyridine-6-yl)-amine] | –
20 | > 1000 | – | > 1000 | COc1ccc(S(=O)(=O)N2CCCCC2)cc1N(C)c1cc2c(cn1)ncn2C [Compound 314, [2-Methoxy-5-(piperidine-1-sulfonyl)-phenyl]-methyl-(1-methyl-1H-imidazo[4,5-d]pyridin-6-yl)-amine] | –
21 | > 1000 | – | > 1000 | COc1cc(S(=O)(=O)N2CCOCC2)ccc1N(C)c1cc2c(cn1)ncn2C [Compound 315, [2-Methoxy-4-(morpholine-4-sulfonyl)-phenyl]-methyl-(1-methyl-1H-imidazo[4,5-d]pyridin-6-yl)-amine] | –
22 | 0.01 to 100 | – | 101 to 500 | CN(c1cc2c(cn1)ncn2C)c1ccc(CNC(=O)C(F)F)cc1F [Compound 320] | –
23 | 101 to 500 | – | 101 to 500 | CCc1cc(C#N)cc(F)c1N(C)c1cc2c(cn1)ncn2C [Compound 322, 3-Ethyl-5-fluoro-4-[methyl-(1-methyl-M-imidazo[4,5-c]pyridin-6-yl)-amino]-benzonitrile] | –
24 | 0.01 to 100 | – | 0.01 to 100 | CCc1cc(CNS(=O)(=O)C(F)F)cc(F)c1N(C)c1cc2c(cn1)ncn2C [Compound 324, N-{3-Ethyl-5-fluoro-4-[methyl-(1-methyl-1H-imidazo[4,5-c]pyridin-6-yl)-amino]-benzyl}-C,C-difluoro-methanesulfonamide] | –
25 | 0.01 to 100 | – | 101 to 500 | CCc1cc(CNC(=O)C(F)F)c(F)cc1N(C)c1cc2c(cn1)ncn2C [Compound 326, N-{5-Ethyl-2-fluoro-4-[methyl-(1-methyl-M-imidazo[4,5-c]pyridin-6-yl)-amino]-benzyl}-2,2-difluoro-acetamide] | –
26 | 101 to 500 | – | > 1000 | CCc1cc(C2CN(S(=O)(=O)C(C)C)C2)ncc1N(C)c1cc2c(cn1)ncn2C [Compound 330, {4-Ethyl-6-[1-(propane-2-sulfonyl)-azetidin-3-yl]-pyridin-3-yl}-methyl-(1-methyl-1H-imidazo[4,5-c]pyridin-6-yl)-amine] | –
27 | 101 to 500 | – | 501 to 1000 | CCc1cc(C2CN(CC#N)C2)ncc1N(C)c1cc2c(cn1)ncn2C [Compound 331, (3-{4-Ethyl-5-[methyl-(1-methyl-1H-imidazo[4,5-c]pyridin-6-yl)-amino]-pyridin-2-yl}-azetidin-1-yl)-acetonitrile] | –
28 | 501 to 1000 | – | > 1000 | CCc1cc(C2CN(C(C)=O)C2)ncc1N(C)c1cc2c(cn1)ncn2C [Compound 332, 1-(3-{4-Ethyl-5-[methyl-(1-methyl-1H-imidazo[4,5-c]pyridin-6-yl)-amino]-pyridin-2-yl}-azetidin-1-yl)-ethanone] | –
29 | 101 to 500 | – | 501 to 1000 | CCc1cc(CNS(=O)(=O)C(F)F)ncc1N(C)c1cc2c(cn1)ncn2C [Compound 343, N-{4-Ethyl-5-[methyl-(1-methyl-1H-imidazo[4,5-c]pyridin-6-yl)-amino]-pyridin-2-ylmethyl}-C,C-difluoro-methane sulfonamide] | > 1000
30 | 101 to 500 | – | 0.01 to 100 | CCc1ccccc1N(CC(F)F)c1cc2c(cn1)ncn2C [Compound 463, N-(2,2-difluoroethyl)-N-(2-ethylphenyl)-1-methyl-1H-imidazo[4,5-c]pyridin-6-amine] | –

Row | Compound | IC50 (human JAK2) [nM] | IC50 (BA/F3 cell line) [nM] | IC50 (human TYK2) [nM] | IC50 (CTLL-2 cell line) [nM]
31 | CCc1cn(CCC#N)nc1N(C)c1cc2c(cn1)ncn2C [Compound 316, 3-{4-Ethyl-3-[methyl-(1-methyl-1H-imidazo[4,5-c]pyridin-6-yl)-amino]-pyrazol-1-yl}-propionitrile] | > 1000 | – | > 1000 | –
